What was measured:
786-0 = test: Growth inhibition of the 786-O Renal cancer cell line for 2-day in vitro assay.; type: functional; details: Homo sapiens, 786-0, 48 h
A498 = test: Growth inhibition of the A498 Renal cancer cell line for 2-day in vitro assay.; type: functional; details: Homo sapiens, A498, 48 h
A549 = test: Growth inhibition of the A549/ATCC non-small cell lung cancer cell line for 2-day in vitro assay.; type: functional; details: Homo sapiens, A549, 48 h
ACHN = test: Growth inhibition of the ACHN Renal cancer cell line for 2-day in vitro assay.; type: functional; details: Homo sapiens, 48 h
CCRF-CEM = test: Growth inhibition of the CCRF-CEM leukemia cell line for 2-day in vitro assay.; type: functional; details: Homo sapiens, 48 h
COLO 205 = test: Growth inhibition of the COLO-205 colon cancer cell line for 2-day in vitro assay.; type: functional; details: Homo sapiens, COLO 205, 48 h
DU-145 = test: Growth inhibition of the DU-145 Prostate cancer cell line for 2-day in vitro assay.; type: functional; details: Homo sapiens, DU-145, 48 h
EKVX = test: Growth inhibition of the EKVX non-small cell lung cancer cell line for 2-day in vitro assay.; type: functional; details: Homo sapiens, 48 h
HCT-15 = test: Growth inhibition of the HCT-15 colon cancer cell line for 2-day in vitro assay.; type: functional; details: Homo sapiens, HCT-15, 48 h
HL-60 = test: Growth inhibition of the HL-60(TB) leukemia cell line for 2-day in vitro assay.; type: functional; details: Homo sapiens, HL-60, 48 h
HOP-62 = test: Growth inhibition of the HOP-62 non-small cell lung cancer cell line for 2-day in vitro assay.; type: functional; details: Homo sapiens, HOP-62, 48 h
HCT-116 = test: Growth inhibition of the HCT116 colon cancer cell line for 2-day in vitro assay.; type: functional; details: Homo sapiens, HCT-116, 48 h
HCC 2998 = test: Growth inhibition of the HCC2998 colon cancer cell line for 2-day in vitro assay.; type: functional; details: Homo sapiens, HCC 2998, 48 h
Hs-578T = test: Growth inhibition of the Hs 578.T Breast cancer cell line for 2-day in vitro assay.; type: functional; details: Homo sapiens, 48 h
K562 = test: Growth inhibition of the K-562 leukemia cell line for 2-day in vitro assay.; type: functional; details: Homo sapiens, K562, 48 h
KM12 = test: Growth inhibition of the KM12 colon cancer cell line for 2-day in vitro assay.; type: functional; details: Homo sapiens, KM12, 48 h
M14 = test: Growth inhibition of the M14 Melanoma cancer cell line for 2-day in vitro assay.; type: functional; details: Homo sapiens, M14, 48 h
LOX IMVI = test: Growth inhibition of the LOX IMVI Melanoma cancer cell line for 2-day in vitro assay.; type: functional; details: Homo sapiens, 48 h
MDA-MB-435 = test: Growth inhibition of the […] Breast cancer cell line for 2-day in vitro assay.; type: functional; details: Homo sapiens, MDA-MB-435, 48 h
MCF7 [1] = test: In vitro cytotoxicity against MCF-7 human mammary carcinoma cells; type: functional, cell-based
MDA-N = test: Growth inhibition of the MDA-N Breast cancer cell line for 2-day in vitro assay.; type: functional; details: Homo sapiens, 48 h
Malme-3M = test: Growth inhibition of the MALME-3M Melanoma cancer cell line for 2-day in vitro assay.; type: functional; details: Homo sapiens, 48 h
NCI-H522 = test: Growth inhibition of the NCI-H522 non-small cell lung cancer cell line for 2-day in vitro assay.; type: functional; details: Homo sapiens, NCI-H522, 48 h
NCI-H226 = test: Growth inhibition of the NCI-H226 non-small cell lung cancer cell line for 2-day in vitro assay.; type: functional; details: Homo sapiens, NCI-H226, 48 h
NCI-H322M = test: Growth inhibition of the NCI-H322M non-small cell lung cancer cell line for 2-day in vitro assay.; type: functional; details: Homo sapiens, 48 h
OVCAR-8 = test: Growth inhibition of the OVCAR-8 Ovarian cancer cell line for 2-day in vitro assay.; type: functional; details: Homo sapiens, OVCAR-8, 48 h
OVCAR-4 = test: Growth inhibition of the OVCAR-4 Ovarian cancer cell line for 2-day in vitro assay.; type: functional; details: Homo sapiens, OVCAR-4, 48 h
NCI-H460 = test: Growth inhibition of the NCI-H460 non-small cell lung cancer cell line for 2-day in vitro assay.; type: functional; details: Homo sapiens, NCI-H460, 48 h
NCI-H23 = test: Growth inhibition of the NCI-H23 non-small cell lung cancer cell line for 2-day in vitro assay.; type: functional; details: Homo sapiens, NCI-H23, 48 h
PC-3 = test: Growth inhibition of the PC-3 Prostate cancer cell line for 2-day in vitro assay.; type: functional; details: Homo sapiens, PC-3, 48 h
RXF 393 = test: Growth inhibition of the RXF-393 Renal cancer cell line for 2-day in vitro assay.; type: functional; details: Homo sapiens, RXF 393, 48 h
SF-268 = test: Growth inhibition of the SF-268 CNS cancer cell line for 2-day in vitro assay.; type: functional; details: Homo sapiens, SF-268, 48 h
SK-MEL-2 = test: Growth inhibition of the SK-MEL-2 Melanoma cancer cell line for 2-day in vitro assay.; type: functional; details: Homo sapiens, SK-MEL-2, 48 h
SW-620 = test: Growth inhibition of the SW-620 colon cancer cell line for 2-day in vitro assay.; type: functional; details: Homo sapiens, SW-620, 48 h
SF-539 = test: Growth inhibition of the SF-539 CNS cancer cell line for 2-day in vitro assay.; type: functional; details: Homo sapiens, SF-539, 48 h
SN12C = test: Growth inhibition of the SN12C Renal cancer cell line for 2-day in vitro assay.; type: functional; details: Homo sapiens, 48 h
SNB-19 = test: Growth inhibition of the SNB19 CNS cancer cell line for 2-day in vitro assay.; type: functional; details: Homo sapiens, SNB-19, 48 h
SF-295 = test: Growth inhibition of the SF-295 CNS cancer cell line for 2-day in vitro assay.; type: functional; details: Homo sapiens, SF-295, 48 h
SR = test: Growth inhibition of the SR leukemia cell line for 2-day in vitro assay.; type: functional; details: Homo sapiens, 48 h
SK-MEL-5 = test: Growth inhibition of the SK-MEL-5 Melanoma cancer cell line for 2-day in vitro assay.; type: functional; details: Homo sapiens, SK-MEL-5, 48 h
SNB-75 = test: Growth inhibition of the SNB-75 CNS cancer cell line for 2-day in vitro assay.; type: functional; details: Homo sapiens, SNB-75, 48 h
SK-MEL-28 = test: Growth inhibition of the SK-MEL-28 Melanoma cancer cell line for 2-day in vitro assay.; type: functional; details: Homo sapiens, SK-MEL-28, 48 h
TK-10 = test: Growth inhibition of the TK-10 Renal cancer cell line for 2-day in vitro assay.; type: functional; details: Homo sapiens, TK-10, 48 h
T47D = test: Growth inhibition of the T-47D Breast cancer cell line for 2-day in vitro assay.; type: functional; details: Homo sapiens, 48 h
UO-31 = test: Growth inhibition of the UO-31 Renal cancer cell line for 2-day in vitro assay.; type: functional; details: Homo sapiens, UO-31, 48 h
UACC-257 = test: Growth inhibition of the UACC-257 Melanoma cancer cell line for 2-day in vitro assay.; type: functional; details: Homo sapiens, UACC-257, 48 h
U-251 = test: Growth inhibition of the U251 CNS cancer cell line for 2-day in vitro assay.; type: functional; details: Homo sapiens, U-251, 48 h
UACC-62 = test: Growth inhibition of the UACC-62 Melanoma cancer cell line for 2-day in vitro assay.; type: functional; details: Homo sapiens, UACC-62, 48 h
NCI/ADR-RES = test: Growth inhibition of the NCI/ADR-RES Breast cancer cell line for 2-day in vitro assay.; type: functional; details: Homo sapiens, 48 h
SK-OV-3 = test: Growth inhibition of the SK-OV-3 Ovarian cancer cell line for 2-day in vitro assay.; type: functional; details: Homo sapiens, SK-OV-3, 48 h
HT-29 = test: Growth inhibition of the HT-29 colon cancer cell line for 2-day in vitro assay.; type: functional; details: Homo sapiens, HT-29, 48 h
MDA-MB-231 = test: Growth inhibition of the […] Breast cancer cell line for 2-day in vitro assay.; type: functional; details: Homo sapiens, MDA-MB-231, 48 h
MCF7 [2] = test: Growth inhibition of the MCF-7 Breast cancer cell line for 2-day in vitro assay.; type: functional; details: Homo sapiens, MCF7, 48 h
MOLT-4 = test: Growth inhibition of the MOLT-4 leukemia cell line for 2-day in vitro assay.; type: functional; details: Homo sapiens, MOLT-4, 48 h
BT-549 = test: Growth inhibition of the BT-549 Breast cancer cell line for 2-day in vitro assay.; type: functional; details: Homo sapiens, BT-549, 48 h

SMILES: Cc1cc(-c2nc3ccccc3s2)ccc1N
- GI50 (786-0): > 100 µM
- GI50 (A498): 42.7 µM
- GI50 (A549): 28.8 µM
- GI50 (ACHN): 51.3 µM
- GI50 (CCRF-CEM): 6.46 µM
- GI50 (COLO 205): 51.3 µM
- GI50 (DU-145): 61.7 µM
- GI50 (EKVX): 34.7 µM
- GI50 (HCT-15): 47.9 µM
- GI50 (HL-60): 8.71 µM
- GI50 (HOP-62): > 100 µM
- GI50 (HCT-116): 43.7 µM
- GI50 (HCC 2998): 0.251 µM
- GI50 (Hs-578T): > 100 µM
- GI50 (K562): 60.3 µM
- GI50 (KM12): > 100 µM
- GI50 (M14): 57.5 µM
- GI50 (LOX IMVI): 37.2 µM
- GI50 (MDA-MB-435): 79.4 µM
- IC50 (MCF7 [1]): < 0.001 µM
- GI50 (MDA-N): 97.7 µM
- GI50 (Malme-3M): > 100 µM
- GI50 (NCI-H522): 32.4 µM
- GI50 (NCI-H226): 0.355 µM
- GI50 (NCI-H322M): 43.7 µM
- GI50 (OVCAR-8): > 100 µM
- GI50 (OVCAR-4): 0.55 µM
- GI50 (NCI-H460): 53.7 µM
- GI50 (NCI-H23): 58.9 µM
- GI50 (PC-3): 31.6 µM
- GI50 (RXF 393): 67.6 µM
- GI50 (SF-268): > 100 µM
- GI50 (SK-MEL-2): > 100 µM
- GI50 (SW-620): > 100 µM
- GI50 (SF-539): > 100 µM
- GI50 (SN12C): 50.1 µM
- GI50 (SNB-19): > 100 µM
- GI50 (SF-295): 64.6 µM
- GI50 (SR): 17.4 µM
- GI50 (SK-MEL-5): 21.9 µM
- GI50 (SNB-75): 33.1 µM
- GI50 (SK-MEL-28): > 100 µM
- GI50 (TK-10): 0.186 µM
- GI50 (T47D): 0.107 µM
- GI50 (UO-31): 6.46 µM
- GI50 (UACC-257): 74.1 µM
- GI50 (U-251): 66.1 µM
- GI50 (UACC-62): 70.8 µM
- GI50 (NCI/ADR-RES): 93.3 µM
- GI50 (SK-OV-3): > 100 µM
- GI50 (HT-29): 29.5 µM
- GI50 (MDA-MB-231): 66.1 µM
- GI50 (MCF7 [2]): 0.0316 µM
- GI50 (MOLT-4): 19.5 µM
- GI50 (BT-549): 66.1 µM

SMILES: Nc1ccc(-c2nc3ccccc3s2)cc1Cl
- IC50 (MCF7 [1]): < 0.001 µM

SMILES: Nc1ccc(-c2nc3ccc(O)cc3s2)cc1Cl
- IC50 (MCF7 [1]): 54.5 µM

SMILES: CC(=O)Nc1ccc(-c2nc3ccc(O)cc3s2)cc1C
- IC50 (MCF7 [1]): 46.1 µM

SMILES: Nc1ccc(-c2nc3cc(O)ccc3s2)cc1Cl
- IC50 (MCF7 [1]): 60.6 µM

SMILES: CC(=O)Nc1ccc(-c2nc3cc(O)ccc3s2)cc1C
- IC50 (MCF7 [1]): 72.5 µM

SMILES: CC(=O)ON(C(C)=O)c1ccc(-c2nc3ccccc3s2)cc1C
- IC50 (MCF7 [1]): 0.055 µM

SMILES: Nc1ccc(-c2nc3cc(O)ccc3s2)cc1
- IC50 (MCF7 [1]): > 100 µM

SMILES: CC(=O)Nc1ccc(-c2nc3ccc(O)cc3s2)cc1Cl
- IC50 (MCF7 [1]): 71.2 µM

SMILES: Nc1ccc(-c2nc3c(O)cccc3s2)cc1
- IC50 (MCF7 [1]): > 100 µM

SMILES: Nc1ccc(-c2nc3ccccc3s2)cc1CO
- IC50 (MCF7 [1]): 0.006 µM

SMILES: CC(=O)ON(C(C)=O)c1ccc(-c2nc3ccccc3s2)cc1
- IC50 (MCF7 [1]): < 0.001 µM

SMILES: Nc1ccc(-c2nc3ccccc3s2)cc1I
- IC50 (MCF7 [1]): < 0.001 µM

SMILES: CC(=O)Nc1ccc(-c2nc3c(O)cccc3s2)cc1Cl
- IC50 (MCF7 [1]): 56.8 µM

SMILES: CC(=O)Nc1ccc(-c2nc3c(O)cccc3s2)cc1C
- IC50 (MCF7 [1]): 33 µM

SMILES: Cc1cc(-c2nc3c(O)cccc3s2)ccc1N
- IC50 (MCF7 [1]): > 100 µM

SMILES: Cc1cc(-c2nc3cc(O)ccc3s2)ccc1N
- IC50 (MCF7 [1]): 78.7 µM

SMILES: CC(=O)Nc1ccc(-c2nc3cccc(O)c3s2)cc1C
- IC50 (MCF7 [1]): 48.2 µM

SMILES: Cc1cc(-c2nc3cccc(O)c3s2)ccc1N
- IC50 (MCF7 [1]): 90.8 µM

SMILES: CC(=O)Nc1ccc(-c2nc3ccccc3s2)cc1O
- IC50 (MCF7 [1]): 9 µM

SMILES: Nc1ccc(-c2nc3c(O)cccc3s2)cc1Cl
- IC50 (MCF7 [1]): 61.4 µM

SMILES: CC(=O)Nc1ccc(-c2nc3cc(O)ccc3s2)cc1Cl
- IC50 (MCF7 [1]): 31 µM

SMILES: Nc1ccc(-c2nc3ccccc3s2)cc1
- IC50 (MCF7 [1]): < 0.001 µM

SMILES: Nc1ccc(-c2nc3ccc(O)cc3s2)cc1
- IC50 (MCF7 [1]): 21.6 µM

Source: ChEMBL document CHEMBL1132434, “Antitumor benzothiazoles. 8. Synthesis, metabolic formation, and biological properties of the C- and N-oxidation products of antitumor 2-(4-aminophenyl)benzothiazoles” (J Med Chem, 1999)
